Literature values as cited in US5420288A, “Electroluminescent device comprising oxadiazole compounds luminescent material, oxadiazole compounds for the device, and method of producing oxadiazole compounds” (Ricoh Company, Ltd., priority 1992, dated 1995).

Conditions: conventional materials, background

For `CC(C)(C)c1ccc(-c2nnc(-c3ccc(-c4ccccc4)cc3)o2)cc1` [2-(4-tert-butylphenyl)-5-(p-biphenyl)-1,3,4-oxadiazole], the “film-forming properties / crystallization / stability” value is given as “easily crystallized and lacks in the stability”.
